Test results taken from the NIST ThermoML archive (doi:10.1021/je400077c).

How the values were obtained:
[1] = wn = mass fraction of the nth substance listed; conditions: 298.15 K, 101 kPa, Liquid; for viscosity: Capillary tube (Ostwald / Ubbelohde) method; for speed of sound: Linear variable-path acoustic interferometer; for mass density: Vibrating tube method
[2] = refractive index (Na D-line) (dimensionless); wn = mass fraction of the nth substance listed; conditions: 298.15 K, 101 kPa, Liquid, Standard Abbe refractometry

[Ba+2].[Cl-].[Cl-] [barium chloride] + O
Conditions | mass density, [1] [kg/m3] | refractive index, [2] | speed of sound, [1] [m/s] | viscosity, [1] [mPa·s]
w1 = 0.01 | 997.56 | 1.333 | 1516.7 | 0.909
w1 = 0.03 | 998.66 | 1.3337 | 1521.4 | 0.915
w1 = 0.05 | 999.74 | 1.3345 | 1525.3 | 0.921
